Experimental data as given in patent publication US9611267B2, “Substituted tricyclic compounds as FGFR inhibitors” (Incyte Corporation, priority 2012, dated 2017).

Key:
Type in all cases: biochemical
FGFR3 = FGFR3 (Homo sapiens (Human), UniProt P22607); assay: FGFR enzymatic assay (FRET peptide phosphorylation), FGFR3; conditions: FGFR3 enzyme (Millipore), ATP 140 μM
Description: (§1) The inhibitor potency of the exemplified compounds was measured in an enzyme assay that measures peptide phosphorylation using FRET measurements to detect product formation. Inhibitors were serially diluted in DMSO and a volume of 0.5 μL was transferred to the wells of a 384-well plate. For FGFR3, a 10 μL volume of FGFR3 enzyme (Millipore) diluted in assay buffer (50 mM HEPES, 10 mM MgCl2, 1 mM EGTA, 0.01% Tween-20, 5 mM DTT, pH 7.5) was added to the plate and pre-incubated for 5-10 minutes. Appropriate controls (enzyme blank and enzyme with no inhibitor) were included on the plate. […] The plate was incubated at 25° C. for 1 hr. […] The plate was allowed to equilibrate for ˜1 hr before scanning the wells on a PheraStar plate reader (BMG Labtech).
(§2) GraphPad prism3 was used to analyze the data. The IC50 values were derived by fitting the data to the equation for a sigmoidal dose-response with a variable slope. Y=Bottom+(Top−Bottom)/(1+10^((LogIC50−X)*HillSlope)) where X is the logarithm of concentration and Y is the response.

FGFR1 = FGFR1 (Homo sapiens (Human), UniProt P11362); assay: FGFR enzymatic assay (FRET peptide phosphorylation), FGFR1; conditions: FGFR1 enzyme 0.02 nM, ATP 210 μM
Description: as §1
(§3) The enzymes were purchased from Millipore or Invitrogen.
as §2

FGFR2 = FGFR2 (Homo sapiens (Human), UniProt P21802); assay: FGFR enzymatic assay (FRET peptide phosphorylation), FGFR2; conditions: FGFR2 enzyme 0.01 nM, ATP 100 μM
Description: as §1, §3, §2

Chain of FGFR2 (P21802 22-821): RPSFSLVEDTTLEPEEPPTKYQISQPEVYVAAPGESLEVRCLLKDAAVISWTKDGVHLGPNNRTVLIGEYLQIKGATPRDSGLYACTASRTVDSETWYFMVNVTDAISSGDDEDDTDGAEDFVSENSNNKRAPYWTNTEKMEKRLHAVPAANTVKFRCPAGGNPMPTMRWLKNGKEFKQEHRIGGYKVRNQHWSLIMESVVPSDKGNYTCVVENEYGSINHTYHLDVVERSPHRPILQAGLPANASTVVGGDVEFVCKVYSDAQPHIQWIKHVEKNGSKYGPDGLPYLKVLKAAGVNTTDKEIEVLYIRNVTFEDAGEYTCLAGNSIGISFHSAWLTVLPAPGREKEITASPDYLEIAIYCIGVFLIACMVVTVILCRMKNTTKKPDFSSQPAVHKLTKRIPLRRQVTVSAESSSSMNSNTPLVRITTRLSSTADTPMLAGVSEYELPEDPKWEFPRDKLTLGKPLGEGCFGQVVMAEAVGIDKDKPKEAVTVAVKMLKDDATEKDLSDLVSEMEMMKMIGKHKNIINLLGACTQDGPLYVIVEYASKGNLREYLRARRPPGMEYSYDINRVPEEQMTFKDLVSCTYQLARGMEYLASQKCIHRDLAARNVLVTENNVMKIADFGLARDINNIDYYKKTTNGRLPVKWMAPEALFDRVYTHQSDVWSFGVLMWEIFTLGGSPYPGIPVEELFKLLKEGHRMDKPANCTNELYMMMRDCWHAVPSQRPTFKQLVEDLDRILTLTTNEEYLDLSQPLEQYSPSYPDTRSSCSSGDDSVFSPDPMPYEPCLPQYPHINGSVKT
Chain of FGFR1 (P11362 22-822): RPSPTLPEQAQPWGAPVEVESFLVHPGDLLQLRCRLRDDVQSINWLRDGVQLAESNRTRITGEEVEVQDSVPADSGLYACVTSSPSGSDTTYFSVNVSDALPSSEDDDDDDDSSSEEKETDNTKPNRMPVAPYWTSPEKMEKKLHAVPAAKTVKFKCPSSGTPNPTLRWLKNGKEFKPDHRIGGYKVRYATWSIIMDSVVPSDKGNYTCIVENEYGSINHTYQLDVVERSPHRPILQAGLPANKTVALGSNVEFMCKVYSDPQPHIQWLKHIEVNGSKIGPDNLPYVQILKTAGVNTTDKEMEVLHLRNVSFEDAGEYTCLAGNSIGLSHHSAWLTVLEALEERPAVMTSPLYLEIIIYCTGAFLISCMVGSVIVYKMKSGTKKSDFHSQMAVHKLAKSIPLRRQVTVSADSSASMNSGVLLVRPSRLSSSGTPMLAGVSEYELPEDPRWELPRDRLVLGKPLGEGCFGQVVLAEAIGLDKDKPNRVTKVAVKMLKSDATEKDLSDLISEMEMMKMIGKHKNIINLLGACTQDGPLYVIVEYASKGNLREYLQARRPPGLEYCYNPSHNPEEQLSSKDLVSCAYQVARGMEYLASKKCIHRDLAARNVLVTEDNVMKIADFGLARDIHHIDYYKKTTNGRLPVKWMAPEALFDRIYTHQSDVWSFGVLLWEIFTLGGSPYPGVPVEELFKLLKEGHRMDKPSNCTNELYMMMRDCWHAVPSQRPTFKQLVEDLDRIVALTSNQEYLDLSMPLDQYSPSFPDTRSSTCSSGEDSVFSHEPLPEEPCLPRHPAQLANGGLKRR
Chain of FGFR3 (P22607 23-806): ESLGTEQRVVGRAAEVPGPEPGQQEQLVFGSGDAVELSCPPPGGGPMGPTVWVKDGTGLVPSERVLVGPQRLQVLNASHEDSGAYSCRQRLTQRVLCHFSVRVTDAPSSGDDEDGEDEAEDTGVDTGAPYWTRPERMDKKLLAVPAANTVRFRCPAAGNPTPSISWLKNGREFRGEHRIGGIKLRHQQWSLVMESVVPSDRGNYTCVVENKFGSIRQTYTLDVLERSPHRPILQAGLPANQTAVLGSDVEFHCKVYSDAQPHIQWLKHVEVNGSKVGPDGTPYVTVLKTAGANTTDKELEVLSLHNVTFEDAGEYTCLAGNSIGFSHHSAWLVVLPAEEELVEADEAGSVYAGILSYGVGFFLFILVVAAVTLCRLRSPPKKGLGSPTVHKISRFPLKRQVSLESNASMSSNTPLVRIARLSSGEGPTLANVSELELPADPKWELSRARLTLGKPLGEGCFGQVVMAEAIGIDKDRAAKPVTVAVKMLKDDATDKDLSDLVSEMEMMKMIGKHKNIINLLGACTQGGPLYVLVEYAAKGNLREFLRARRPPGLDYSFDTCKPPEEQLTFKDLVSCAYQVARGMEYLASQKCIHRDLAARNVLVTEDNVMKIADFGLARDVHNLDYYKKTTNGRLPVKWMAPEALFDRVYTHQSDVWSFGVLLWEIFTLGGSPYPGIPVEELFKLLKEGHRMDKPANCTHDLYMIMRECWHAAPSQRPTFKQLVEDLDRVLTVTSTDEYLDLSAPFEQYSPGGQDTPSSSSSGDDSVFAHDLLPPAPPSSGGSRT

SMILES	IC50 (FGFR3) [nM]	IC50 (FGFR1) [nM]	IC50 (FGFR2) [nM]
COc1cc(OC)c(F)c(N2Cc3cnc4[nH]ncc4c3N(C3CC3)C2=O)c1F [Example 87, 1-cyclopropyl-3-(2,6-difluoro-3,5-dimethoxyphenyl)-1,3,4,7-tetrahydro-2H-pyrazolo[4′,3′:5,6]pyrido[4,3-d]pyrimidin-2-one]	< 100	< 100	< 100
COc1cc(OC)c(F)c(N2Cc3cnc4[nH]ccc4c3N(c3cccc(Cl)c3F)C2=O)c1F [Example 84, 1-(3-chloro-2-fluorophenyl)-3-(2,6-difluoro-3,5-dimethoxyphenyl)-1,3,4,7-tetrahydro-2H-pyrrolo[3′,2′:5,6]pyrido[4,3-d]pyrimidin-2-one]	< 100	< 100	< 100
COc1cc(OC)c(F)c(N2Cc3cnc4[nH]c(CN5CCOCC5)cc4c3N(c3ccccc3F)C2=O)c1F [Example 180, 3-(2,6-difluoro-3,5-dimethoxyphenyl)-1-(2-fluorophenyl)-8-(morpholin-4-ylmethyl)-1,3,4,7-tetrahydro-2H-pyrrolo[3′,2′:5,6]pyrido[4,3-d]pyrimidin-2-one]	< 100	< 100	< 100
COc1cc(OC)c(F)c(N2Cc3cnc4[nH]c(CN5CCOCC5)cc4c3N(c3cnn(C)c3)C2=O)c1F [Example 203, 3-(2,6-difluoro-3,5-dimethoxyphenyl)-1-(1-methyl-1H-pyrazol-4-yl)-8-(morpholin-4-ylmethyl)-1,3,4,7-tetrahydro-2H-pyrrolo[3′,2′:5,6]pyrido[4,3-d]pyrimidin-2-one]	< 100	< 100	< 100
COc1cc(OC)c(F)c(N2Cc3cnc4[nH]ncc4c3N(CCc3ccncc3)C2=O)c1F [Example 171, 3-(2,6-Difluoro-3,5-dimethoxyphenyl)-1-(2-pyridin-4-ylethyl)-1,3,4,7-tetrahydro-2H-pyrazolo[4′,3′:5,6]pyrido[4,3-d]pyrimidin-2-one]	< 100	< 100	< 100
COc1cc(OC)cc(N2Cc3cnc4[nH]c(-c5ccc(N6CCN(C)CC6)cc5)cc4c3N(C)C2=O)c1 [Example 10, 3-(3,5-Dimethoxyphenyl)-1-methyl-8-[4-(4-methylpiperazin-1-yl)phenyl]-1,3,4,7-tetrahydro-2H-pyrrolo[3′,2′:5,6]pyrido[4,3-d]pyrimidin-2-one]	< 100	< 100	< 100
COc1cc(OC)c(F)c(N2Cc3cnc4[nH]c(CN5CCN(C)CC5)cc4c3N(C3CC3)C2=O)c1F [Example 187, 1-cyclopropyl-3-(2,6-difluoro-3,5-dimethoxyphenyl)-8-[(4-methylpiperazin-1-yl)methyl]-1,3,4,7-tetrahydro-2H-pyrrolo[3′,2′:5,6]pyrido[4,3-d]pyrimidin-2-one]	< 100	< 100	< 100
COc1cc(OC)c(F)c(N2Cc3cnc4[nH]c(CN5CCC(F)(F)CC5)cc4c3N(C)C2=O)c1F [Example 112, 3-(2,6-difluoro-3,5-dimethoxyphenyl)-8-[(4,4-difluoropiperidin-1-yl)methyl]-1-methyl-1,3,4,7-tetrahydro-2H-pyrrolo[3′,2′:5,6]pyrido[4,3-d]pyrimidin-2-one]	< 100	< 100	< 100
COc1cc(OC)c(F)c(N2Cc3cnc4[nH]c(C(=O)N5CCOCC5)cc4c3N(C)C2=O)c1F [Example 41, 3-(2,6-Difluoro-3,5-dimethoxyphenyl)-1-methyl-8-(morpholin-4-ylcarbonyl)-1,3,4,7-tetrahydro-2H-pyrrolo[3′,2′:5,6]pyrido[4,3-d]pyrimidin-2-one]	< 100	< 100	< 100
CCN1CCN(Cc2cc3c4c(cnc3[nH]2)CN(c2c(F)c(OC)cc(OC)c2F)C(=O)N4C)CC1 [Example 70, 3-(2,6-difluoro-3,5-dimethoxyphenyl)-8-[(4-ethylpiperazin-1-yl)methyl]-1-methyl-1,3,4,7-tetrahydro-2H-pyrrolo[3′,2′:5,6]pyrido[4,3-d]pyrimidin-2-one]	< 100	< 100	< 100
COc1cc(OC)c(F)c(N2Cc3cnc4[nH]ncc4c3N(c3cnn(C)c3)C2=O)c1F [Example 85, 3-(2,6-difluoro-3,5-dimethoxyphenyl)-1-(1-methyl-1H-pyrazol-4-yl)-1,3,4,7-tetrahydro-2H-pyrazolo[4′,3′:5,6]pyrido[4,3-d]pyrimidin-2-one]	< 100	< 100	< 100
COc1cc(OC)c(F)c(N2Cc3cnc4[nH]ncc4c3OC2=O)c1F [Example 62, 3-(2,6-difluoro-3,5-dimethoxyphenyl)-4,7-dihydropyrazolo[4′,3′:5,6]pyrido[3,4-e][1,3]oxazin-2(3H)-one]	< 100	100 to 500	100 to 500
COc1cc(OC)c(F)c(N2Cc3cnc4[nH]ncc4c3N([C@H]3CCOC3)C2=O)c1F [Example 89, 3-(2,6-difluoro-3,5-dimethoxyphenyl)-1-[(3S)-tetrahydrofuran-3-yl]-1,3,4,7-tetrahydro-2H-pyrazolo[4′,3′:5,6]pyrido[4,3-d]pyrimidin-2-one]	< 100	< 100	< 100
COc1cc(OC)c(F)c(N2Cc3cnc4[nH]c(CN5CCOCC5)cc4c3N(c3ccc(F)cc3)C2=O)c1F [Example 189, 3-(2,6-difluoro-3,5-dimethoxyphenyl)-1-(4-fluorophenyl)-8-(morpholin-4-ylmethyl)-1,3,4,7-tetrahydro-2H-pyrrolo[3′,2′:5,6]pyrido[4,3-d]pyrimidin-2-one]	< 100	< 100	< 100
COc1cc(OC)c(F)c(N2Cc3cnc4[nH]c(CN[C@H]5CCOC5)cc4c3N(C)C2=O)c1F [Example 135, 3-(2,6-difluoro-3,5-dimethoxyphenyl)-1-methyl-8-{[(3S)-tetrahydrofuran-3-ylamino]methyl}-1,3,4,7-tetrahydro-2Hpyrrolo[3′,2′:5,6]pyrido[4,3-d]pyrimidin-2-one]	< 100	< 100	< 100
CCN1C(=O)N(c2c(F)c(OC)cc(OC)c2F)Cc2cnc3[nH]c(CCN4CC(C#N)C4)cc3c21 [Example 230, 1-{2-[3-(2,6-difluoro-3,5-dimethoxyphenyl)-1-ethyl-2-oxo-2,3,4,7-tetrahydro-1H-pyrrolo[3′,2′:5,6]pyrido[4,3-d]pyrimidin-8-yl]ethyl}azetidine-3-carbonitrile]	< 100	< 100	< 100
COc1cc(OC)c(Cl)c(N2Cc3cnc4[nH]c(C#N)cc4c3N(C)C2=O)c1 [Example 16, 3-(2-Chloro-3,5-dimethoxyphenyl)-1-methyl-2-oxo-2,3,4,7-tetrahydro-1H-pyrrolo[3′,2′:5,6]pyrido[4,3-d]pyrimidine-8-carbonitrile]	< 100	< 100	< 100
CCN1CCN(C(=O)c2cc3c4c(cnc3[nH]2)CN(c2c(F)c(OC)cc(OC)c2F)C(=O)N4C)CC1 [Example 119, 3-(2,6-difluoro-3,5-dimethoxyphenyl)-8-[(4-ethylpiperazin-1-yl)carbonyl]-1-methyl-1,3,4,7-tetrahydro-2H-pyrrolo[3′,2′:5,6]pyrido[4,3-d]pyrimidin-2-one]	< 100	< 100	< 100
COc1cc(OC)c(F)c(N2Cc3cnc4[nH]c(CN5CCC(C#N)CC5)cc4c3N(C)C2=O)c1F [Example 132, 1-{[3-(2,6-difluoro-3,5-dimethoxyphenyl)-1-methyl-2-oxo-2,3,4,7-tetrahydro-1H-pyrrolo[3′,2′:5,6]pyrido[4,3-d]pyrimidin-8-yl]methyl}piperidine-4-carbonitrile]	< 100	< 100	< 100
COc1cc(OC)c(F)c(N2Cc3cnc4[nH]ccc4c3N(c3cccnn3)C2=O)c1F [Example 109, 3-(2,6-difluoro-3,5-dimethoxyphenyl)-1-pyridazin-3-yl-1,3,4,7-tetrahydro-2H-pyrrolo[3′,2′:5,6]pyrido[4,3-d]pyrimidin-2-one]	< 100	< 100	< 100
COc1cc(OC)c(F)c(N2Cc3cnc4c(c3N(c3cccc(F)c3F)C2=O)CC(=O)N4)c1F [Example 77, 3-(2,6-difluoro-3,5-dimethoxyphenyl)-1-(2,3-difluorophenyl)-3,4,7,9-tetrahydro-1H-pyrrolo[3′,2′:5,6]pyrido[4,3-d]pyrimidine-2,8-dione]	< 100		< 100
COc1cc(OC)c(F)c(N2Cc3cnc4c(c3N(c3ccc(C#N)cc3)C2=O)CC(=O)N4)c1F [Example 122, 4-[3-(2,6-difluoro-3,5-dimethoxyphenyl)-2,8-dioxo-2,3,4,7,8,9-hexahydro-1H-pyrrolo[3′,2′:5,6]pyrido[4,3-d]pyrimidin-1-yl]benzonitrile]	< 100		< 100
COc1cc(OC)c(F)c(N2Cc3cnc4c(c3N(C)C2=O)C2(CC2)C(=O)N4)c1F [Example 59, 3′-(2,6-Difluoro-3,5-dimethoxyphenyl)-1′-methyl-4′,7′-dihydrospiro[cyclopropane-1,9′-pyrrolo[3′,2′:5,6]pyrido[4,3-d]pyrimidine]-2′,8′(1′H,3′H)-dione]	< 100		< 100
